The values below come from ChEMBL document CHEMBL1201862, “PubChem BioAssay data set” (2004).

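Cultured in 96-well plates, cells were exposed to test compound for 48 hours across five concentrations. The concentration for 50% growth inhibition is given as GI50.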 Active and inactive are the calls of the source. No stated cut-off is given here; in the data, active = GI50 up to about 1.1 µM and inactive = higher. Where only a bound is given, the exact number is not on record here.

Among the test systems are SF-295; IGROV-1; CCRF-CEM; SK-MEL-2; NCI-H23; EKVX; CAKI-1; NCI-H226; HCT-116; A549; ACHN; TK-10; OVCAR-5; HOP-92; OVCAR-8; OVCAR-4; SNB-19; U-251; SF-539; LOX IMVI.
Common to all, as to assay: inhibition of tumour cell growth, NCI panel, 48 h

For the compound `Cc1ccc(S(=O)(=O)N2c3ccccc3[C@H]3CCc4c([nH]c5ccccc45)[C@H]32)cc1`, the GI50 with SF-295 is > 100 µM (inactive); in the assay with IGROV-1, 0.789 µM (active); in the assay with CCRF-CEM, 70 µM (inactive); in the assay on SK-MEL-2, > 100 µM (inactive); with NCI-H23 it was > 100 µM (inactive); with EKVX, > 100 µM (inactive). Further, the GI50 in the assay on CAKI-1 is 4.33 µM (inactive); with NCI-H226, 15.3 µM (inactive); in the assay on HCT-116 it was > 100 µM (inactive); in the assay on A549 it was > 100 µM (inactive); in the assay with ACHN, > 100 µM (inactive); in the assay on TK-10, > 100 µM (inactive). The GI50 is > 100 µM (inactive) in the assay with OVCAR-5; > 100 µM (inactive) in the assay on HOP-92; > 100 µM (inactive) in the assay with OVCAR-8; 0.942 µM (active) with OVCAR-4; > 100 µM (inactive) in the assay on SNB-19; > 100 µM (inactive) with U-251. Moreover, the figures for the GI50 in the assay with SF-539 and with LOX IMVI were 27.7 µM (inactive) and > 100 µM (inactive), respectively.
With `O=C(O)CN(CC(=O)O)C(C(=O)O)c1ccccc1` (stereo not given), the GI50 with SF-295, in the assay with IGROV-1, in the assay on CCRF-CEM, in the assay with SK-MEL-2, in the assay on NCI-H23 and in the assay with EKVX was > 100 µM (inactive) in each case. The GI50 in the assay with CAKI-1, with NCI-H226, in the assay on HCT-116, in the assay on A549, in the assay with ACHN and with TK-10 was > 100 µM (inactive) each time. Moreover, the GI50 with OVCAR-5, with HOP-92, in the assay with OVCAR-8, in the assay on OVCAR-4, in the assay with SNB-19 and in the assay on U-251 was > 100 µM (inactive) in each case. Also, the GI50 with SF-539 and in the assay with LOX IMVI was > 100 µM (inactive) throughout.
